The structures appear in SMILES notation. ≈ marks a conversion by molar mass, not a printed value.

The results in this text go back to patent US9890133B2 (priority 2011, dated 2018).

The nature of the data set: in vitro. The conditions noted are these: human.

`COc1cc2c(cc1OC)C1(O)C(=O)c3ccccc3C1(O)N2C(=O)C(C)C` (stereo not drawn) [Example 138, 4b,9b-Dihydroxy-5-isobutyryl-7,8-dimethoxy-5,9b-dihydro-4bH-indeno[1,2-b]indol-10-one] registered a CC50 (Picorana CC50) of 38.8 µg/mL (≈ 101 µM).

The compound `CCCCCCCC(=O)N[C@@]12C(=O)c3c(N)cccc3[C@]1(O)Oc1cc(C(C)C)ccc12` [Example 93, N-((4bS,9bS)-1-Amino-4b-hydroxy-7-isopropyl-10-oxo-9b,10-dihydro-4bH-indeno[1,2-b]benzofuran-9b-yl)octanamide] came in with a CC50 of 6.23 µg/mL (≈ 14.3 µM). Moreover, the CC50 (Picorana CC50) turned out to be 8.49 µg/mL (≈ 19.4 µM).

`CC(C)c1ccc2c(c1)OC1(O)c3ccccc3C(=O)C21NC(=O)c1cc(=O)[nH]c(=O)[nH]1` (stereo not drawn) [Example 224, N-(4b-Hydroxy-7-isopropyl-10-oxo-9b,10-dihydro-4bH-benzo[d]indeno[1,2-b]furan-9b-yl)-2,6-dioxo-1,2,3,6-tetrahydropyrimidine-4-carboxamide] gave a CC50 of over 10 µg/mL. Also, the CC50 (Picorana CC50) was over 50 µg/mL.

`CC(C)c1ccc2c(c1)OC1(O)c3ccccc3C(=O)C21NC=O` (stereo not drawn) [Example 177, N-(4b-hydroxy-7-isopropyl-10-oxo-9b,10-dihydro-4bH-indeno[1,2-b]benzofuran-9b-yl)formamide] showed a CC50 of over 10 µg/mL.

Regarding `CCNC(=O)NC12C(=O)c3c(N)cccc3C1(O)Oc1cc(C(C)C)ccc12` (stereo not drawn) [Example 173], the CC50 was over 10 µg/mL.

On to `CCC(=O)N[C@@]12C(=O)c3c(N)cccc3[C@]1(OC(=O)CC)Oc1cc(C(C)C)ccc12` [Example 94, (4bR,9bS)-1-Amino-7-isopropyl-10-oxo-9b-propionamido-9b,10-dihydro-4bH-indeno[1,2-b]benzofuran-4b-yl propionate], for which the CC50 stood at 58.1 µg/mL (≈ 137 µM). In addition, where the note is “Picorana CC50”, the CC50 stood at 42.4 µg/mL (≈ 100 µM).

Compound `CC(C)c1ccc2c(c1)OC1(O)c3ccc(N4CCCCC4)cc3C(=O)C21O` (stereo not drawn) [Example 139, 4b,9b-Dihydroxy-7-isopropyl-2-piperidinyl-4bH-benzo[d]indeno[1,2-b]furan-10(9bH)-one] had a CC50 (Picorana CC50) of 0.45 µg/mL (≈ 1.19 µM).

In the case of `CC(C)c1ccc2c(c1)OC1(O)c3ccccc3C(=O)C21NC(=O)c1cccnc1` (stereo not drawn) [Example 230, N-(4b-Hydroxy-7-isopropyl-10-oxo-9b,10-dihydro-4bH-indeno[1,2-b]benzofuran-9b-yl)nicotinamide], the CC50 is over 10 µg/mL. This compound also yielded a CC50 (Picorana CC50) of 42.8 µg/mL (≈ 107 µM).

`CC(C)NC(=O)NC12C(=O)c3c([N+](=O)[O-])cccc3C1(O)Oc1cc(C(C)C)ccc12` (stereo not drawn) [Example 76, 1-(4b-Hydroxy-7-isopropyl-1-nitro-10-oxo-4b,10-dihydro-5-oxa-indeno[2,1-a]inden-9b-yl)-3-isopropyl-urea]: under “Picorana CC50”, the CC50 is over 50 µg/mL.

As to `CC(C)c1ccc2c(c1)OC1(O)c3cccc(N)c3C(=O)C21NC(=O)c1c(Cl)cc(Cl)cc1Cl` (stereo not drawn) [Example 192, N-(1-Amino-4b-hydroxy-7-isopropyl-10-oxo-9b,10-dihydro-4bH-indeno[1,2-b]benzofuran-9b-yl)-2,4,6-trichlorobenzamide], the CC50 is over 10 µg/mL.

For the setting “Picorana CC50”, `CC(C)c1ccc2c(c1)OC1(OC(=S)Nc3ccccc3)c3ccccc3C(=O)C21N=[N+]=[N-]` (stereo not drawn) [Example 122, Phenyl-thiocarbamic acid O-(9b-azido-7-isopropyl-10-oxo-9b,10-dihydro-5-oxa-indeno[2,1-a]inden-4b-yl) ester] showed a CC50 of 12 µg/mL (≈ 26.2 µM).

For `CONC(=O)N[C@@]12C(=O)c3ccccc3[C@]1(O)Oc1cc(C(C)C)ccc12` [Example 103, 1-((4bS,9bS)-4b-Hydroxy-7-isopropyl-10-oxo-9b,10-dihydro-4bH-indeno[1,2-b]benzofuran-9b-yl)-3-methoxyurea], the CC50 (Picorana CC50) is over 50 µg/mL.

In the case of `CC(C)c1ccc2c(c1)OC1(O)c3ccccc3C(=O)C21NC(=O)[C@@H](C)NC(=O)OC(C)(C)C` (stereo partly drawn) [Example 184, tert-Butyl(2R)-1-(4b-hydroxy-7-isopropyl-10-oxo-9b,10-dihydro-4bH-benzo[d]indeno[1,2-b]furan-9b-ylamino)-1-oxopropan-2-ylcarbamate], the CC50 is over 10 µg/mL. For the setting “Picorana CC50”, this compound had a CC50 of 36.4 µg/mL (≈ 78 µM).
